Reference: patent US20080009418A1, “Selective Inhibitors” (Alchemia LTD., priority 2004, published 2008)

Experiments:
Mouse urotensin (mUR2) = biological target: T1, Mouse urotensin (mUR2) (Mus musculus, UniProt Q8VIH9); test: Radioligand binding, mouse urotensin mUR2 membranes, FlashPlate, [125I]-Urotensin II; details: compound at 10 μM
T1 construct: purchased Perkin Elmer Biosignal
T1 sequence (Q8VIH9 1-385): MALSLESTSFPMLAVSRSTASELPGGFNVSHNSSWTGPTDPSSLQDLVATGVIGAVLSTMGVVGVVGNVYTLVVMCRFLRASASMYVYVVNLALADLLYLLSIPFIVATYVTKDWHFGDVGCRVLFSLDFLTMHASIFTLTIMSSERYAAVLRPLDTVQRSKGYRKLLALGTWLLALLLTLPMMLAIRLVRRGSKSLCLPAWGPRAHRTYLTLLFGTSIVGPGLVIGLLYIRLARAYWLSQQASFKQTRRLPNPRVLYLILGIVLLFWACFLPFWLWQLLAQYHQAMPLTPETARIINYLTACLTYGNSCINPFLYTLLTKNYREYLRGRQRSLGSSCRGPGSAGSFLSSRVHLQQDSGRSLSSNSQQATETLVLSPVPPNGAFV
How it was run: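 Cloned mouse urotensin (mUR2) receptor membranes from Perkin Elmer Biosignal were immobilized in FlashPlate microplates using a proprietary coating. Each well got 19.5 μl buffer, then 0.5 μl of DMSO, reference ligand, or compound. Adding 5 μl of [125I]-Urotensin II, diluted to 5× final concentration in binding buffer, started binding. Plates were sealed with TopSeal-A and incubated 1 hour at room temperature in the dark. Wells were counted for 30 seconds each on a TopCount after a 60-second delay, and percentage inhibition was calculated.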

Human neurokinin (NK1) = biological target: T2, Human neurokinin (NK1) (Homo sapiens, UniProt P25103); test: Radioligand binding, human neurokinin NK1 membranes, filtration, [125I]-Substance P; details: compound at 10 μM
T2 construct: purchased Perkin Elmer Biosignal
T2 sequence (P25103 whole entry): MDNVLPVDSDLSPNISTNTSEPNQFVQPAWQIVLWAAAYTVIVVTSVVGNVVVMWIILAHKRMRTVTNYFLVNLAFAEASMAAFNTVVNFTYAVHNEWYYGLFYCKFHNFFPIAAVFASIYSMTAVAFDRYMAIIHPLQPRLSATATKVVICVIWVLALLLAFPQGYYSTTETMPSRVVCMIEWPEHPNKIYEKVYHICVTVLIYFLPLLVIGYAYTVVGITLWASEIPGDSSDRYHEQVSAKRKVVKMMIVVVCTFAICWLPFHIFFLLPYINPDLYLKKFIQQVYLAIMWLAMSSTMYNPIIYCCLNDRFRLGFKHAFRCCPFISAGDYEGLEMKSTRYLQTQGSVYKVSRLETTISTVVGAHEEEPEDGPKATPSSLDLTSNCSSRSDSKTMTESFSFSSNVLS
How it was run: (§1)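 Filtration binding on cloned human receptor membranes (1 Unit/well), [125I]-Substance P for NK1 and [3H]-Diprenorphine for KOP, 1 h at room temperature. Filters PEI-presoaked, washed with cold 50 mM Tris-HCl pH 7.4, counted by scintillation; percent inhibition calculated, reference ligand defining non-specific binding.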

[1] = biological target: T3, Human neuropeptide Y (NPY-Y1) (Homo sapiens, UniProt P25929); test: Radioligand binding, human neuropeptide Y NPY-Y1 membranes, FlashPlate, [125I]-PYY; details: compound at 10 μM
T3 construct: purchased Perkin Elmer Biosignal
T3 sequence (P25929 1-384): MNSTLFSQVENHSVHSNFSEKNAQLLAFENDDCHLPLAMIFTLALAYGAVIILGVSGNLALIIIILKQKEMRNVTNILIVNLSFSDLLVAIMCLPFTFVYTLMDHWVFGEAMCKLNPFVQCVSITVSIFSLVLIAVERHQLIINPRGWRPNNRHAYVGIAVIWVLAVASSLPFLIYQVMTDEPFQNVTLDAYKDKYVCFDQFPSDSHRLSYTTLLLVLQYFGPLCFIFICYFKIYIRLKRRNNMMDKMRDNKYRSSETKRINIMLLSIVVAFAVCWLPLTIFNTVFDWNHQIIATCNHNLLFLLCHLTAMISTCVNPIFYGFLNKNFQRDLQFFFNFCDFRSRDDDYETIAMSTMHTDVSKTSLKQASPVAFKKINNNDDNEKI
How it was run: (§2)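 Cloned human receptor membranes were coated onto FlashPlate wells and incubated with radioligand and compound (added from a 0.5 mM DMSO daughter plate) for 1 hour at room temperature in the dark. Scintillation counting gave percent inhibition, with DMSO defining total and reference ligand defining non-specific binding.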

Human κ-Opioid (KOP) = biological target: T4, Human κ-Opioid (KOP) (Homo sapiens, UniProt P41145); test: Radioligand binding, human κ-opioid (KOP) membranes, filtration, [3H]-Diprenorphine; details: compound at 10 μM
T4 construct: purchased Perkin Elmer Biosignal
T4 sequence (P41145 whole entry): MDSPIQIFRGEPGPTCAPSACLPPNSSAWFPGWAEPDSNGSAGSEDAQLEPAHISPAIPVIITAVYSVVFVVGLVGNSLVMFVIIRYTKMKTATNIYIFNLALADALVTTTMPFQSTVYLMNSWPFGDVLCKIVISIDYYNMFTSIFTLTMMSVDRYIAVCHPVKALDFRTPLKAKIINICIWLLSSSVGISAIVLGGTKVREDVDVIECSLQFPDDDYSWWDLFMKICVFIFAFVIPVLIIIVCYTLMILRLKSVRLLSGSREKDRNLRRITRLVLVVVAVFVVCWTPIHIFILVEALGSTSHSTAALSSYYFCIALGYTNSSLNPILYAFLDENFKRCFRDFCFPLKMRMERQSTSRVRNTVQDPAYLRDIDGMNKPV
How it was run: as §1

Human Melanocortin (MC3) = biological target: T5, Human Melanocortin (MC3) (Homo sapiens, UniProt P41968); test: Radioligand binding, human melanocortin MC3 membranes, FlashPlate, [125I]-NDP-αMSH; details: compound at 10 μM
T5 construct: purchased Perkin Elmer Biosignal
T5 sequence (P41968 whole entry): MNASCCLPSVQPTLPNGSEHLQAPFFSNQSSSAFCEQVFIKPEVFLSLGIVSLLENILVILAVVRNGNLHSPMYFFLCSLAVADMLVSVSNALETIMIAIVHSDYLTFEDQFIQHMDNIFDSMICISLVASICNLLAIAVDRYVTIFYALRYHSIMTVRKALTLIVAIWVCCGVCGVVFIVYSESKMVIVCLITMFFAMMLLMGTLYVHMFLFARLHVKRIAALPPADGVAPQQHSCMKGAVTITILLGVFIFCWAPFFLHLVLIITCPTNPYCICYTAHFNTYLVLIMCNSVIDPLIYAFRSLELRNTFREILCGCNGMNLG
How it was run: as §2

Human Melanocortin (MC4) = biological target: T6, Human Melanocortin (MC4) (Homo sapiens, UniProt P32245); test: Radioligand binding, human melanocortin MC4 membranes, FlashPlate, [125I]-NDP-αMSH; details: compound at 10 μM
T6 construct: purchased Perkin Elmer Biosignal
T6 sequence (P32245 whole entry): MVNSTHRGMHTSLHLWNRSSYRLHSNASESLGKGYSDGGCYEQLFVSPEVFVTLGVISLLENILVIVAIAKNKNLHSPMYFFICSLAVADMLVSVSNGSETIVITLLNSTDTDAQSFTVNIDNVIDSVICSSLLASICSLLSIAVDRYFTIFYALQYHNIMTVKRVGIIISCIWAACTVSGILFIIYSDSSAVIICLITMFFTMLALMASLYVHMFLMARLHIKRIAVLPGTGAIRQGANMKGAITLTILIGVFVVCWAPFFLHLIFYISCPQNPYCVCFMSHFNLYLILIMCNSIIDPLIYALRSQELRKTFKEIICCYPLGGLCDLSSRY
How it was run: as §2

Human melanocortin (MC5) = biological target: T7, Human melanocortin (MC5) (Homo sapiens, UniProt P33032); test: Radioligand binding, human melanocortin MC5 membranes, FlashPlate, [125I]-NDP-αMSH; details: compound at 10 μM
T7 construct: purchased Perkin Elmer Biosignal
T7 sequence (P33032 whole entry): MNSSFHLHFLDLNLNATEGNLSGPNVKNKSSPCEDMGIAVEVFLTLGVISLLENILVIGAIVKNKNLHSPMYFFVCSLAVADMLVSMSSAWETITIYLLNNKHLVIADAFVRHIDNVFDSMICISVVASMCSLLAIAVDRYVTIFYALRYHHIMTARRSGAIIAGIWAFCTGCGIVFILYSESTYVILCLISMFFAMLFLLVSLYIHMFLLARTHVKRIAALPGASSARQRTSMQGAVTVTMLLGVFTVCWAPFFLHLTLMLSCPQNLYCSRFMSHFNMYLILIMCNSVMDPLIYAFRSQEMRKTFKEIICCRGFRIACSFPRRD
How it was run: as §2

Human δ-opioid (DOP) = biological target: T8, Human δ-opioid (DOP) (Homo sapiens, UniProt P41143); test: Radioligand binding, human δ-opioid (DOP) membranes, FlashPlate, [3H]-Bremazocine; details: compound at 10 μM
T8 construct: purchased Perkin Elmer Biosignal
T8 sequence (P41143 whole entry): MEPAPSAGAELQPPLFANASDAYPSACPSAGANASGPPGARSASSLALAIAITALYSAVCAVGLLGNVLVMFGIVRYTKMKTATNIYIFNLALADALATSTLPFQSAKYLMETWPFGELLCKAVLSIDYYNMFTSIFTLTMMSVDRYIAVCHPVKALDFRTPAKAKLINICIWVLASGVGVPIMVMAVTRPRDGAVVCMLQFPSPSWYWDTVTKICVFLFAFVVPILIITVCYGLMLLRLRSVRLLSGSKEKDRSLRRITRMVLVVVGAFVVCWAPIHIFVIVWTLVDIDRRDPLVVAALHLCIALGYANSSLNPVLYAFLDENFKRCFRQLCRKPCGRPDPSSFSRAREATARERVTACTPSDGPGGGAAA
How it was run: as §2

Human opioid (ORL1) = biological target: T9, Human opioid (ORL1) (Homo sapiens, UniProt P41146); test: Radioligand binding, human opioid ORL1 membranes, FlashPlate, [125I]-Nociceptin; details: compound at 10 μM
T9 construct: purchased Perkin Elmer Biosignal
T9 sequence (P41146 whole entry): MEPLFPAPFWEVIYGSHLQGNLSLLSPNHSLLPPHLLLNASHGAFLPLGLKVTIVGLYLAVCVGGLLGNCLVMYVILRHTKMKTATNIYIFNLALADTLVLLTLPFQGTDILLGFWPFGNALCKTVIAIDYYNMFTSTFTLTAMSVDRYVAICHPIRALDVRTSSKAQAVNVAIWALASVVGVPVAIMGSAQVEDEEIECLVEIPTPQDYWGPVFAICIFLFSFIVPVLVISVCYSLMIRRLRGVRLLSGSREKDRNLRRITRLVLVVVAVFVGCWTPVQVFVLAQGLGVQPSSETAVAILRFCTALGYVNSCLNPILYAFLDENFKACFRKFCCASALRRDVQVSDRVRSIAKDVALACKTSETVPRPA
How it was run: as §2

Human μ-opioid (MOP) = biological target: T10, Human μ-opioid (MOP) (Homo sapiens, UniProt P35372); test: Radioligand binding, human μ-opioid (MOP) membranes, FlashPlate, [3H]-Naloxone; details: compound at 10 μM
T10 construct: purchased Perkin Elmer Biosignal
T10 sequence (P35372 whole entry): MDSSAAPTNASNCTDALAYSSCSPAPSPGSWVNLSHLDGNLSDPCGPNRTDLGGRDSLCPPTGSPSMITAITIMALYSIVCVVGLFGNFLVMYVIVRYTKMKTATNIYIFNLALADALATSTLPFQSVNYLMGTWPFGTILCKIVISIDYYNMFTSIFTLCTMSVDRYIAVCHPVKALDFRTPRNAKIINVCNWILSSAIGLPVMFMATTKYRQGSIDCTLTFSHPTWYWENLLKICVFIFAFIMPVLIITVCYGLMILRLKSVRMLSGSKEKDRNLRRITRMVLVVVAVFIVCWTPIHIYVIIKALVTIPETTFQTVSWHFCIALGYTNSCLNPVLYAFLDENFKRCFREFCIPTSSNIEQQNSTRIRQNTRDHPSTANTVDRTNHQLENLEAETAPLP
How it was run: as §2

[2] = biological target: T11, Human melanin-concentrating hormone (MCH1) (Homo sapiens, UniProt Q99705); test: Radioligand binding, human melanin-concentrating hormone MCH1 membranes, FlashPlate, [125I]-S36057; details: compound at 10 μM; for A6 radioligand binding, percentage inhibition: [125I]-S36057
T11 construct: purchased Perkin Elmer Biosignal
T11 sequence (Q99705 whole entry): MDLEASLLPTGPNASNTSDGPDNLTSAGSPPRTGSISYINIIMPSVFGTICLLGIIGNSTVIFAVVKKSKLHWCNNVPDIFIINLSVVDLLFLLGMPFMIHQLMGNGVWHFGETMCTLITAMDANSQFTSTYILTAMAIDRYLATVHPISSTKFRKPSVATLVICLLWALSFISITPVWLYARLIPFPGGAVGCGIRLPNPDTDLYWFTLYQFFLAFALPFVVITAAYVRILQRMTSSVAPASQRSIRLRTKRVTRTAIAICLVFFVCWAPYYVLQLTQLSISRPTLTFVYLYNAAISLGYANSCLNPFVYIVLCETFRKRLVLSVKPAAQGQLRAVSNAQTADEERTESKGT
How it was run: as §2

SMILES: COC[C@H]1OC(OCCc2ccccc2)[C@H](NC(=O)CNC(=N)N)[C@@H](OCc2ccc(-c3ccccc3)cc2)[C@@H]1O (stereo partly shown) [compound 40]
- A11 radioligand binding inhibition (Mouse urotensin (mUR2); mouse urotensin mUR2 membranes): − (“−” indicates less than 50% inhibition at 10 μM)
- A8 radioligand binding inhibition (Human neurokinin (NK1); human neurokinin NK1 membranes): − (“−” indicates less than 50% inhibition at 10 μM)
- A9 radioligand binding inhibition ([1]; human NPY-Y1 membranes): − (“−” indicates less than 50% inhibition at 10 μM)
- A2 radioligand binding inhibition (Human κ-Opioid (KOP); human κ-opioid (KOP) membranes): − (“−” indicates less than 50% inhibition at 10 μM)
- A3 radioligand binding inhibition (Human Melanocortin (MC3); human melanocortin MC3 membranes): + (“+” indicates greater than 50% inhibition at 10 μM)
- A4 radioligand binding inhibition (Human Melanocortin (MC4); human melanocortin MC4 membranes): + (“+” indicates greater than 50% inhibition at 10 μM)
- A5 radioligand binding inhibition (Human melanocortin (MC5); human melanocortin MC5 membranes): + (“+” indicates greater than 50% inhibition at 10 μM)
- A1 radioligand binding inhibition (Human δ-opioid (DOP); human δ-opioid (DOP) membranes): − (“−” indicates less than 50% inhibition at 10 μM)
- A10 radioligand binding inhibition (Human opioid (ORL1); human ORL1 membranes): − (“−” indicates less than 50% inhibition at 10 μM)
- A7 radioligand binding inhibition (Human μ-opioid (MOP); human μ-opioid (MOP) membranes): − (“−” indicates less than 50% inhibition at 10 μM)
- A6 radioligand binding inhibition ([2]; human MCH1 membranes): + (“+” indicates greater than 50% inhibition at 10 μM)

SMILES: COC[C@H]1OC(OCc2ccc(Cl)cc2)[C@H](NC(=O)CCCNC(=N)N)[C@@H](OCc2cccc(O)c2)[C@@H]1O (stereo partly shown) [compound 139]
- A11 radioligand binding, percentage inhibition (Mouse urotensin (mUR2); [125I]-Urotensin II): − (“−” indicates less than 50% inhibition at 10 μM)
- A8 radioligand binding, percentage inhibition (Human neurokinin (NK1); [125I]-Substance P): − (“−” indicates less than 50% inhibition at 10 μM)
- A9 radioligand binding, percentage inhibition ([1]; [125I]-PYY): − (“−” indicates less than 50% inhibition at 10 μM)
- A2 radioligand binding, percentage inhibition (Human κ-Opioid (KOP); [3H]-Diprenorphine): − (“−” indicates less than 50% inhibition at 10 μM)
- A3 radioligand binding, percentage inhibition (Human Melanocortin (MC3); [125I]-NDP-αMSH): − (“−” indicates less than 50% inhibition at 10 μM)
- A4 radioligand binding, percentage inhibition (Human Melanocortin (MC4); [125I]-NDP-αMSH): − (“−” indicates less than 50% inhibition at 10 μM)
- A5 radioligand binding, percentage inhibition (Human melanocortin (MC5); [125I]-NDP-αMSH): − (“−” indicates less than 50% inhibition at 10 μM)
- A1 radioligand binding, percentage inhibition (Human δ-opioid (DOP); [3H]-Bremazocine): − (“−” indicates less than 50% inhibition at 10 μM)
- A10 radioligand binding, percentage inhibition (Human opioid (ORL1); [125I]-Nociceptin): − (“−” indicates less than 50% inhibition at 10 μM)
- A7 radioligand binding, percentage inhibition (Human μ-opioid (MOP); [3H]-Naloxone): + (“+” indicates greater than 50% inhibition at 10 μM)
- A6 radioligand binding, percentage inhibition [2]: + (“+” indicates greater than 50% inhibition at 10 μM)

SMILES: CSC1OC(COCc2ccc(-c3ccccc3)cc2)C(O)C(OCc2ccccc2)C1NC(=O)CNC(=N)N (stereo not shown) [compound 255]
- A11: inhibition of radioligand binding (Mouse urotensin (mUR2); [125I]-Urotensin II, FlashPlate): − (“−” indicates less than 50% inhibition at 10 μM)
- A8: inhibition of radioligand binding (Human neurokinin (NK1); [125I]-Substance P, filtration): + (“+” indicates greater than 50% inhibition at 10 μM)
- A9: inhibition of radioligand binding ([1]; [125I]-PYY, FlashPlate): − (“−” indicates less than 50% inhibition at 10 μM)
- A2: inhibition of radioligand binding (Human κ-Opioid (KOP); [3H]-Diprenorphine, filtration): − (“−” indicates less than 50% inhibition at 10 μM)
- A3: inhibition of radioligand binding (Human Melanocortin (MC3); [125I]-NDP-αMSH, FlashPlate): − (“−” indicates less than 50% inhibition at 10 μM)
- A4: inhibition of radioligand binding (Human Melanocortin (MC4); [125I]-NDP-αMSH, FlashPlate): + (“+” indicates greater than 50% inhibition at 10 μM)
- A5: inhibition of radioligand binding (Human melanocortin (MC5); [125I]-NDP-αMSH, FlashPlate): + (“+” indicates greater than 50% inhibition at 10 μM)
- A1: inhibition of radioligand binding (Human δ-opioid (DOP); [3H]-Bremazocine, FlashPlate): − (“−” indicates less than 50% inhibition at 10 μM)
- A10: inhibition of radioligand binding (Human opioid (ORL1); [125I]-Nociceptin, FlashPlate): − (“−” indicates less than 50% inhibition at 10 μM)
- A7: inhibition of radioligand binding (Human μ-opioid (MOP); [3H]-Naloxone, FlashPlate): − (“−” indicates less than 50% inhibition at 10 μM)
- A6: inhibition of radioligand binding ([2]; [125I]-S36057, FlashPlate): − (“−” indicates less than 50% inhibition at 10 μM)

SMILES: CO[C@H]1[C@H](O)[C@@H](COCc2ccc(Cl)cc2)OC(OCc2cccc(O)c2)[C@@H]1NC(=O)CCCNC(=N)N (stereo partly shown) [compound 170]
- A11 radioligand binding, percentage inhibition (Mouse urotensin (mUR2); [125I]-Urotensin II): − (“−” indicates less than 50% inhibition at 10 μM)
- A8 radioligand binding, percentage inhibition (Human neurokinin (NK1); [125I]-Substance P): + (“+” indicates greater than 50% inhibition at 10 μM)
- A9 radioligand binding, percentage inhibition ([1]; [125I]-PYY): − (“−” indicates less than 50% inhibition at 10 μM)
- A2 radioligand binding, percentage inhibition (Human κ-Opioid (KOP); [3H]-Diprenorphine): − (“−” indicates less than 50% inhibition at 10 μM)
- A3 radioligand binding, percentage inhibition (Human Melanocortin (MC3); [125I]-NDP-αMSH): − (“−” indicates less than 50% inhibition at 10 μM)
- A4 radioligand binding, percentage inhibition (Human Melanocortin (MC4); [125I]-NDP-αMSH): − (“−” indicates less than 50% inhibition at 10 μM)
- A5 radioligand binding, percentage inhibition (Human melanocortin (MC5); [125I]-NDP-αMSH): + (“+” indicates greater than 50% inhibition at 10 μM)
- A1 radioligand binding, percentage inhibition (Human δ-opioid (DOP); [3H]-Bremazocine): − (“−” indicates less than 50% inhibition at 10 μM)
- A10 radioligand binding, percentage inhibition (Human opioid (ORL1); [125I]-Nociceptin): − (“−” indicates less than 50% inhibition at 10 μM)
- A7 radioligand binding, percentage inhibition (Human μ-opioid (MOP); [3H]-Naloxone): + (“+” indicates greater than 50% inhibition at 10 μM)
- A6 radioligand binding, percentage inhibition [2]: − (“−” indicates less than 50% inhibition at 10 μM)

SMILES: COCC1OC(OCc2ccccc2)C(NC(=O)CNC(=N)N)C(OCc2ccc(Cl)cc2)C1O (stereo not shown) [compound 177]
- A11 radioligand binding, percentage inhibition (Mouse urotensin (mUR2); [125I]-Urotensin II): − (“−” indicates less than 50% inhibition at 10 μM)
- A8 radioligand binding, percentage inhibition (Human neurokinin (NK1); [125I]-Substance P): + (“+” indicates greater than 50% inhibition at 10 μM)
- A9 radioligand binding, percentage inhibition ([1]; [125I]-PYY): − (“−” indicates less than 50% inhibition at 10 μM)
- A2 radioligand binding, percentage inhibition (Human κ-Opioid (KOP); [3H]-Diprenorphine): − (“−” indicates less than 50% inhibition at 10 μM)
- A3 radioligand binding, percentage inhibition (Human Melanocortin (MC3); [125I]-NDP-αMSH): + (“+” indicates greater than 50% inhibition at 10 μM)
- A4 radioligand binding, percentage inhibition (Human Melanocortin (MC4); [125I]-NDP-αMSH): + (“+” indicates greater than 50% inhibition at 10 μM)
- A5 radioligand binding, percentage inhibition (Human melanocortin (MC5); [125I]-NDP-αMSH): + (“+” indicates greater than 50% inhibition at 10 μM)
- A1 radioligand binding, percentage inhibition (Human δ-opioid (DOP); [3H]-Bremazocine): − (“−” indicates less than 50% inhibition at 10 μM)
- A10 radioligand binding, percentage inhibition (Human opioid (ORL1); [125I]-Nociceptin): − (“−” indicates less than 50% inhibition at 10 μM)
- A7 radioligand binding, percentage inhibition (Human μ-opioid (MOP); [3H]-Naloxone): − (“−” indicates less than 50% inhibition at 10 μM)
- A6 radioligand binding, percentage inhibition [2]: − (“−” indicates less than 50% inhibition at 10 μM)
